In series [1] the test system is RBL cells. Briefly: ATP determination (ATPLite luminescence) in RBL cells. The class given is cell-based, rat. The settings on record: RBL cells, 60 μM Stattic, 20 min. The protocol: (§1) RBL-2H3 cells were maintained in RPMI 1640 medium as previously described1. Bone marrow was isolated from 5-6 week-old mice, and BMMC were cultured in RPMI medium supplemented with 20 ng/ml interleukin-3 (IL-3) and 20 ng/ml SCF as previously described2, 3. Cells were generally grown for a minimum of 4 weeks and used when >90% of the population expressed FcεRI. BMMC and RBL cells were sensitized first with anti-DNP IgE monoclonal antibody (SPE-7; Sigma-Aldrich Corp.) and then challenged with DNP-BSA (Sigma-Aldrich Corp.). IgE antibody was centrifuged (18,000 g, 5 min) before use to remove aggregates. […] For glycolysis elimination cells were maintained in glucose-free RPMI supplemented with 10% dialyzed fetal calf serum and 5 mM galactose.
(§2) ATP levels were measured using the ATPLite luminescence-based assay according to the manufacturer's instructions (Perkin Elmer, Waltham, Mass., USA).

Series [2] relates to BMMC. Briefly: ATP determination (ATPLite luminescence) in BMMC. The settings on record: 60 μM Stattic, 20 min. The class given is cell-based, mouse. The protocol:
as §1, §2
In general terms: In ATP-based viability assays light output follows the ATP content of the culture.

Series [3] deals with RBL cells. Briefly: Oxygen consumption (Seahorse XF analyzer) in RBL cells. The settings on record: RBL cells, 60 μM Stattic, 20 min. The class given is cell-based, rat. As to the method:
as §1
Oxygen consumption rate (OCR) was measured using an XF24 extracellular flux analyzer (Seahorse Biosciences, North Billeric, Mass., USA).

Series [4] deals with succinate cytochrome c reductase (complex 2+3). Description: ETC complex activity analysis in treated RBL cells: complex 2+3. The class given is cell-based, rat. The settings on record: 60 μM Stattic, 30 min, ratio to citrate synthase. As to the method:
(§3) The enzymatic activities of respiratory chain complexes were measured at 37° C. by standard spectrophotometric methods as previously described5, 6. Briefly, complex II was measured as succinate dehydrogenase (SDH) based on the succinate-mediated phenazine methosulfate reduction of dichloroindophenol at 600 nm Complex 2+3 were measured as succinate cytochrome c reductase and after the reduction of oxidized cytochrome c at 550 nm. Complex 4 (cytochrome c oxidase) was measured by following the oxidation of reduced cytochrome c at 550 nm.
(§4) Citrate synthase (CS), an ubiquitous mitochondrial matrix enzyme, serving as a control, was measured in the presence of acetylCoA and oxaloacetate by monitoring the liberation of CoASH coupled to 5′,5′-dithiobis(2-nitrobenzoic) acid at 412 nm. Activities are presented as a ratio to CS. Protein concentration was determined by the Lowry method and calculated according to a bovine serum albumin (BSA) standard curve.

Series [5] relates to cytochrome c oxidase (COX, complex 4). Briefly: ETC complex activity analysis in treated RBL cells: complex 4. The class given is cell-based, rat. The settings on record: 60 μM Stattic, 30 min. The protocol:
as §3, §4

Series [6] has as its system succinate dehydrogenase (SDH, complex 2). Briefly: ETC complex activity analysis in treated RBL cells: complex 2. The class given is cell-based, rat. The following applies: 60 μM Stattic, 30 min. The protocol:
as §3, §4

The test system of series [7] is STAT3 serine 727 phosphorylation. Description: Western blot of STAT3 serine 727 phosphorylation in activated RBL cells. The class given is cell-based, rat. The settings on record: RBL cells, 60 μM Stattic 20 min, immunologically activated 5 min. As to the method:
RBL cells were washed once in cold PBS prior to homogenization. 9×10^6 cells were homogenized in buffer A (320 mm sucrose, 5 mm Tris, 2 mm EGTA, pH 7.4) with 10 strokes of a Teflon Dounce homogenizer. The procedure was performed at 4° C. The homogenate was centrifuged for 3 min at 2000 g and the supernatant kept. This was repeated twice, and the supernatants combined then centrifuged for 3 min at 2000 g. to remove the nuclei and cell debris. The supernatant was transferred to a clean tube and centrifuged for 10 min at 12,000 g to pellet mitochondria, washed twice resuspended in a small volume of buffer A and stored at −70° C. In order to prepare mitoplasts, the mitochondrial pellet was resuspended in buffer A with the addition of 0.02% (w/v) digitonin. The pellet was resuspended and washed twice in large volumes of digitonin-free buffer A. […] Cells and mitochondria were vortexed and incubated on ice for 15 min. The lysates were then centrifuged at 14,000 g for 15 min and pellets were discarded. The protein concentration of each sample was determined using Bradford Reagent (Sigma-Aldrich). Proteins were resolved by 10-15% SDS-PAGE under reducing conditions and transferred to polyvinylidene difluoride membranes (Millipore Billerica, Ma). […] The membranes were washed three times with TBST for 5 mM before and after each incubation with secondary Ab. The proteins were detected with the appropriate secondary Ab (1 h; room temperature) coupled to HRP-conjugated goat anti-rabbit or anti-mouse Ab and visualized by chemiluminescence according to the manufacturer's instructions (Pierce).
(In general: Immunoblotting shows a protein as a band on a membrane.)

Another series concerns caspase3. Description: Western blot of caspase3 / cleaved caspase3 (apoptosis) in RBL cells. The class given is cell-based, rat. The settings on record: activated RBL cells, 60 μM Stattic. The protocol: RBL cells and mitochondrial pellets were lysed by the addition of lysis buffer (50 mM Tris-HCl pH 7.4, 1% Nonidet P-40, 0.25% Na-deoxycholate, 150 mM NaCl, 1 mM EDTA, 1 mM PMSF) supplemented with 15 μl protease inhibitor (Sigma-Aldrich). Cells and mitochondria were vortexed and incubated on ice for 15 min. The lysates were then centrifuged at 14,000 g for 15 min and pellets were discarded. The protein concentration of each sample was determined using Bradford Reagent (Sigma-Aldrich). Proteins were resolved by 10-15% SDS-PAGE under reducing conditions and transferred to polyvinylidene difluoride membranes (Millipore Billerica, Ma). The membranes were incubated in 5% fat-free milk and TBST (10 mM Tris-HCl, pH 7.4, 150 mM NaCl, 0.1% Tween 20) for 1 h and then in 5% BSA and TBST containing various dilutions of primary Abs for 18 h at 4° C. The membranes were washed three times with TBST for 5 mM before and after each incubation with secondary Ab. The proteins were detected with the appropriate secondary Ab (1 h; room temperature) coupled to HRP-conjugated goat anti-rabbit or anti-mouse Ab and visualized by chemiluminescence according to the manufacturer's instructions (Pierce).

Another series has as its system CBMC. Briefly: β-Hexosaminidase release assay (degranulation) in human cord blood-derived mast cells. The class given is cell-based. The settings on record: 60 μM Stattic 5 min before α-human-IgE, control cells 20.9±4.9.
In series [8] the test system is RBL cells. Description: TNF-α secretion of activated RBL cells. The class given is cell-based, rat. The following applies: RBL cells, IgE/DNP-BSA, 60 μM Stattic 20 min.
The test system of series [9] is BMMC. Description: Measurements of secreted mediators (ELISA) in activated BMMC. The class given is cell-based, mouse. The following applies: immunologically activated BMMC, 60 μM Stattic 20 min. The protocol:
1×106 BMMC were immunologically activated as described above. After IgE incubation, the cells were washed three times in PBS and incubated with DNP-albumin (Sigma-Aldrich) for 30 mM in complete growth medium. Supernatant was collected and Granzyme B and TNFα content were measured using ELISA Kits (eBioscience).
(In general: ELISA stands for enzyme-linked immunosorbent assay.)

Regarding `O=[N+]([O-])c1ccc2c(c1)S(=O)(=O)C=C2` [Stattic, 6-Nitrobenzo[b]thiophene 1,1-dioxide, reference compound], the “reduction in ATP levels” value in the series on RBL cells [1] is 72.0±9.0%; in the series with BMMC [2], 76.4±9.3%. For the same molecule, in the series on RBL cells [3], the “reduction in oxygen consumption” value is reported as 18.6±8.3%. In addition, the “reduction in complex 2+3 activity” value in series [4] is given as 50.8±6.1%. In series [5], the “change in cytochrome c oxidase (COX, complex 4) activity” value was “No significant change”. Moreover, in [6], the “change in succinate dehydrogenase (SDH, complex 2) activity” value was “No significant change”. Besides, the “phosphorylation levels of STAT3 serine 727 in total cell lysate” value in [7] is recorded as “significant reduction”. For the same molecule, the “caspase3 levels (apoptosis)” value in the series with caspase3 is recorded as “no change”. In the series on CBMC, the “degranulation (β-hexosaminidase release)” value is reported as 3.5±1.9. The TNF-α secretion result with RBL cells [8] is given as “completely abolished”. In the series with BMMC [9], the “Granzyme B secretion” value is on record as “greatly reduced”.

The values above are taken from patent publication US20160113900A1, “INHIBITORS OF MITOCHONDRIAL STAT3 AND USES THEREOF IN MODULATION OF MAST CELL EXOCYTOSIS” (Yissum Research Development Company of the Hebrew …, priority 2014, published 2016).
